Experimental data published in patent publication US5869675A, “Lactacystin derivatives” (The Kitasato Institute, priority 1994, dated 1999).
Read-outs that look alike come from different tables or passages of the source.

Experiments:
Neuro 2A cells [1] = experiment: Activity of neuritogenesis (bipolar outgrowth of neurites) in Neuro 2A cells, minimum effective dose; format: cell-based, mouse; details: for minimal effective concentration: Mus musculus, N2a, read-out: Minimum effective dose (A)
Method: (§1) Morphological changes of Neuro 2A cells are observed according to the method of Baglioni et al. [J. Biol. Chem., 266: 18620 (1991)].
Neuro 2A cells were plated at a density of 1×10^4 cells/cm^2 in a 24-hole plate, and cultured in MEM-H with 10% FBS.

[2] = Cytotoxic action on Neuro 2A cells; format: cell-based; details: mouse, no attached cells observed in more than 2/3 of the whole cells, read-out: Cytotoxicity (B)
Method: as §1
Neuro 2A cells were plated at a density of 1×10^4 cells/cm^2 in a 24-hole plate, and cultured in MEM-H with 10% FBS. On the next day, lactacystin or lactacystin derivatives were added at the concentration of 0.05-100 μM, and morphological changes of the cells with time were observed by phase contrast microscopy.

Neuro 2A cells [3] = experiment: Selective toxicity (ratio of cytotoxicity/minimum effective dose); format: cell-based, mouse
Description: 2. No specific test method for selective toxicity of the compounds is known, therefore the selective toxicity is defined as the ratio of cytotoxicity/minimum effective dose.

[4] = test system: intracelluar cAMP level in Neuro 2A; experiment: Transient increase in the intracellular cAMP level in mouse neuroblastoma cell line Neuro 2A; format: cell-based
[5] = cited from earlier work
[6] = Neuro 2A cells, concentration in which approximately 20% of whole cells showed bipolar outgrowth of neurites

| SMILES | minimal effective concentration (Neuro 2A cells [1]; [6]) [µM] | MCC [2] [µM] | Selective toxicity (B/A) (Neuro 2A cells [3]) | minimal effective concentration (Neuro 2A cells [1]) [µM] | neuritogenesis (Neuro 2A cells [1]; mouse neuroblastoma cell line Neuro 2A) | intracelluar cAMP level [4] | cytotoxicity ([5]; known compound) | neuritogenesis activity ([5]; known from literature) |
| --- | --- | --- | --- | --- | --- | --- | --- | --- |
| COC(=O)[C@]1([C@@H](O)C(C)C)NC(=O)[C@H](C)[C@@H]1O [Example 1, .tau.-lactam methyl ester] | 1.56 | 12.5 | 8 |  |  |  |  |  |
| CC(C)[C@H](O)[C@@]1(C(=O)SCCC(=O)O)NC(=O)[C@H](C)[C@@H]1O [Example 2, des-N-acetylaminolactacystin] | 0.2 | 1.56 | 8 |  |  |  |  |  |
| CCOC(=O)CCSC(=O)[C@]1([C@@H](O)C(C)C)NC(=O)[C@H](C)[C@@H]1O [Example 3, des-N-acetylaminolactacystin ethyl ester] | 0.2 | 3.12 | 16 |  |  |  |  |  |
| CC(C)[C@H](O)[C@@]1(C(=O)SCCN)NC(=O)[C@H](C)[C@@H]1O [Example 4, des-N-acetyldescarboxylactacystin] | 3.12 | 25 | 8 |  |  |  |  |  |
| COC(=O)[C@H](CSC(=O)[C@]1([C@@H](O)C(C)C)NC(=O)[C@H](C)[C@@H]1O)NC(C)=O [Example 5, lactacystin methyl ester] | 0.78 | 6.25 | 8 |  |  |  |  |  |
| C=CCOC(=O)[C@H](CSC(=O)[C@]1([C@@H](O)C(C)C)NC(=O)[C@H](C)[C@@H]1O)NC(C)=O [Example 6, lactacystin allyl ester] | 0.2 | 6.25 | 31 |  |  |  |  |  |
| CCSC(=O)[C@]1([C@@H](O)C(C)C)NC(=O)[C@H](C)[C@@H]1O [Example 7, 3-hydroxy-2-(1-hydroxy-2-methylpropyl)-4-methyl-5-oxo-2-pyrrolidine-ethanethiocarboxylate] | 0.2 | 1.56 | 8 |  |  |  |  |  |
| CCCSC(=O)[C@]1([C@@H](O)C(C)C)NC(=O)[C@H](C)[C@@H]1O [Example 8] | 0.2 | 3.12 | 16 |  |  |  |  |  |
| CC(C)SC(=O)[C@]1([C@@H](O)C(C)C)NC(=O)[C@H](C)[C@@H]1O [Example 9, 3-hydroxy-2-(1-hydroxy-2-methylpropyl)-4-methyl-5-oxo-2-pyrrolidine-iso-propanethiocarboxylate] | 0.4 | 12.5 | 31 |  |  |  |  |  |
| CCCCSC(=O)[C@]1([C@@H](O)C(C)C)NC(=O)[C@H](C)[C@@H]1O [Example 10, 3-hydroxy-2-(1-hydroxy-2-methylpropyl)-4-methyl-5-oxo-2-pyrrolidine-butanethiocarboxylate] | 0.4 | 12.5 | 31 |  |  |  |  |  |
| CCC(C)SC(=O)[C@]1([C@@H](O)C(C)C)NC(=O)[C@H](C)[C@@H]1O (stereo partly shown) [Example 11, 3-hydroxy-2-(1-hydroxy-2-methylpropyl)-4-methyl-5-oxo-2-pyrrolidine-1-methyl-1-propanethiocarboxylate] | 0.4 | 12.5 | 31 |  |  |  |  |  |
| CCCCCSC(=O)[C@]1([C@@H](O)C(C)C)NC(=O)[C@H](C)[C@@H]1O [Example 12, 3-hydroxy-2-(1-hydroxy-2-methylpropyl)-4-methyl-5-oxo-2-pyrrolidine-1-pentanethiocarboxylate] | 0.8 | 12.5 | 16 |  |  |  |  |  |
| CC(C)[C@H](O)[C@@]1(C(=O)Sc2ccccc2)NC(=O)[C@H](C)[C@@H]1O [Example 13, 3-hydroxy-2-(1-hydroxy-2-methylpropyl)-4-methyl-5-oxo-2-pyrrolidine-phenythiocarboxylate] |  | 12.5 | 16 | 0.8 |  |  |  |  |
| CC(C)[C@H](O)[C@@]1(C(=O)SCCO)NC(=O)[C@H](C)[C@@H]1O [Example 14, 3-hydroxy-2-(1-hydroxy-2-methylpropyl)-4-methyl-5-oxo-2-pyrrolidine-2-hydroxyethanethiocarboxylate] | 3.12 | 25 | 8 |  |  |  |  |  |
| CC(C)[C@H](O)[C@@]1(C(=O)SCCCO)NC(=O)[C@H](C)[C@@H]1O [Example 15, 3-hydroxy-2-(1-hydroxy-2-methylpropyl)-4-methyl-5-oxo-2-pyrrolidine-3-hydroxypropanethiocarboxylate] | 0.4 | 12.5 | 31 |  |  |  |  |  |
| CC(C)[C@H](O)[C@@]1(C(=O)Sc2ccc(O)cc2)NC(=O)[C@H](C)[C@@H]1O [Example 16, 3-hydroxy-2-(1-hydroxy-2-methylpropyl)-4-methyl-5-oxo-2-pyrrolidine-4-hydroxyphenylthiocarboxylate] | 0.4 | 12.5 | 31 |  |  |  |  |  |
| CNCCSC(=O)[C@]1([C@@H](O)C(C)C)NC(=O)[C@H](C)[C@@H]1O [Example 17, 3-hydroxy-2-(1-hydroxy-2-methylpropyl)-4-methyl-5-oxo-2-pyrrolidine-2-N-methylethanethiocarboxylate] | 0.8 | 6.25 | 8 |  |  |  |  |  |
| CC(C)[C@H](O)[C@@]1(C(=O)SCCN(C)C)NC(=O)[C@H](C)[C@@H]1O [Example 18, 3-hydroxy-2-(1-hydroxy-2-methylpropyl)-4-methyl-5-oxo-2-pyrrolidine-2-N-dimethyl-ethanethiocarboxylate] | 0.2 | 6.25 | 31 |  |  |  |  |  |
| CC(C)[C@H](O)[C@@]1(C(=O)SCC(=O)O)NC(=O)[C@H](C)[C@@H]1O [Example 19, 3-hydroxy-2-(1-hydroxy-2-methylpropyl)-4-methyl-5-oxo-2-pyrrolidine-1-carboxymethylthiocarboxylate] | 0.4 | 12.5 | 31 |  |  |  |  |  |
| COC(=O)CSC(=O)[C@]1([C@@H](O)C(C)C)NC(=O)[C@H](C)[C@@H]1O [Example 20, 3-hydroxy-2-(1-hydroxy-2-methylpropyl)-4-methyl-5-oxo-2-pyrrolidine-methoxycarbonylthiocarboxylate] | 0.8 | 12.5 | 16 |  |  |  |  |  |
| COC(=O)CCSC(=O)[C@]1([C@@H](O)C(C)C)NC(=O)[C@H](C)[C@@H]1O [Example 21, 3-hydroxy-2-(1-hydroxy-2-methylpropyl)-4-methyl-5-oxo-2-pyrrolidine-methoxycarbonylethylthiocarboxylate] | 0.2 | 1.56 | 8 |  |  |  |  |  |
| CC(C)[C@H](O)[C@@]1(C(=O)Sc2ccccn2)NC(=O)[C@H](C)[C@@H]1O [Example 22, 3-hydroxy-2-(1-hydroxy-2-methylpropyl)-4-methyl-5-oxo-2-pyrrolidine-2-pyridylthiocarboxylate] | 0.8 | 12.5 | 16 |  |  |  |  |  |
| CC(C)[C@H](O)[C@@]1(C(=O)Sc2ccncc2)NC(=O)[C@H](C)[C@@H]1O [Example 23, 3-hydroxy-2-(1-hydroxy-2-methylpropyl)-4-methyl-5-oxo-2-pyrrolidine-4-pyridylthiocarboxylate] | 0.8 | 12.5 | 16 |  |  |  |  |  |
| CC(C)[C@H](O)[C@@]1(C(=O)SCCC(N)C(=O)O)NC(=O)[C@H](C)[C@@H]1O (stereo partly shown) [Example 24] | 1.56 | 25 | 16 |  |  |  |  |  |
| CC(SC(=O)[C@]1([C@@H](O)C(C)C)NC(=O)[C@H](C)[C@@H]1O)C(=O)NCC(=O)O (stereo partly shown) [Example 25, 2-S-propionylglycine-3-hydroxy-2-(1-hydroxy-2-methylpropyl)-4-methyl-5-oxo-2-pyrrolidinecarboxylate] | 1.56 | 12.5 | 8 |  |  |  |  |  |
| CC(C)[C@H](O)[C@@]1(C(=O)SC[C@H](NC(=O)CC[C@H](N)C(=O)O)C(=O)NCC(=O)O)NC(=O)[C@H](C)[C@@H]1O [Example 26, glutathione-3-hydroxy-2-(1-hydroxy-2-methylpropyl)-4-methyl-5-oxo-2-pyrrolidinethiocarboxylate] | 0.8 | 25 | 31 |  |  |  |  |  |
| CC(=O)N[C@@H](CSC(=O)[C@]1([C@@H](O)C(C)C)NC(=O)[C@H](C)[C@@H]1O)C(=O)O [lactacystin] |  |  |  |  | induce neuritogenesis | cause a transient increase in the intracelluar cAMP level | highly cytotoxic | having neuritogenesis activity |
